The results in this text go back to patent US11629105B2, “Plant treatment composition” (Croda International Plc, priority 2016, dated 2023).

Series [1] can be described thus: Solvent screening for ability to dissolve diphenyl urea (DPU). The series is classed as physicochemical. The following applies: solubility of diphenyl urea (DPU) in the named solvent.
How the values of series [2] were obtained:
The solubility of other substituted ureas and substituted thioureas was tested in this solvent.

A short description of series [3]: Stability of emulsion of urea derivative solution with ATLOX 4991. The series is classed as physicochemical.
The nature of series [4]: Water solubility of solvents (OECD 105). The series is classed as physicochemical. Particulars: solvent in water; for solubility: water, thermodynamic from solid.
Setting [5] is: 2% w/w urea derivative in AGNIQUE AMD10.

Where two headings read alike, the source gives them in different places.

Turning to `CCCCOC(=O)CCCCC(=O)OCCCC` [CETIOL ® B, Dibutyladipate], the “DPU Solubility comments” value in series [1] is listed as “Effectively insoluble”.

On to `O=C1NCCCN1` [N,N′-trimethylene urea], for which, in series [2], the “Fully Soluble in AGNIQUE AMD10? (2% w/w urea derivative)” value is “No” and the “solubility in AGNIQUE AMD10” value was < 2 % w/w.

With `CCCCNC(=S)NCCCC` [N,N′-dibutylthiourea], in series [3], the “Emulsion with ATLOX 4991 stable? (4 wks ambient)” value (from here on “Emulsion with ATLOX 4991 stable?”) is given as “Yes”. Besides, in series [2], the “Fully Soluble in AGNIQUE AMD10? (2% w/w urea derivative)” value is “Yes”.

With `CCNC(=O)NCC` [1,3-diethylurea], in series [3], the “Emulsion with ATLOX 4991 stable?” value is recorded as “Yes”. In addition, the “Fully Soluble in AGNIQUE AMD10? (2% w/w urea derivative)” value in series [2] is reported as “Yes”.

`CCN(C(=O)N(CC)c1ccccc1)c1ccccc1` [1,3-diethyl-1,3-diphenyl urea]: in series [3], the “Emulsion with ATLOX 4991 stable?” value is on record as “Yes”. The “Fully Soluble in AGNIQUE AMD10? (2% w/w urea derivative)” value in series [2] (setting [5]) is reported as “Yes”.

As for `NC(=O)Nc1ccccc1` [N-phenyl urea], the “Emulsion with ATLOX 4991 stable?” value in series [3] is given as “Yes”. Besides, the “Fully Soluble in AGNIQUE AMD10? (2% w/w urea derivative)” value in series [2] is “Yes”.

One may read the solubility as how much of the substance goes into solution per volume. Low values mean a poorly soluble substance, high ones a readily soluble substance. Consider `CCCCCCCCCC(=O)N(C)C` [AGNIQUE ® AMD10, Capric acid dimethylamide], for which, in series [4], the “Water solubility (OECD 105)” value stood at 574 µg/mL and the solubility was < 1000 µg/mL.

Take `CCCCCCCCCCCCN1CCCC1=O` [1-Dodecyl-2-pyrrolidone, 1-dodecyl-2-pyrrolidone]: the solubility in series [4] is < 2000 µg/mL.

With `CCCCOC(C)COC(C)COC(C)CO` (stereo not drawn) [DOWANOL ™ TPnB, Tripropylene glycol n-Butyl ether], the “DPU Solubility comments” value in series [1] is listed as “Effectively insoluble”.

Take `CCCCCCCC(=O)OC` [AGNIQUE ® ME890, Methyl octanoate]: the “DPU Solubility comments” value in series [1] is given as “Effectively insoluble”.

On to `CC(O)COc1ccccc1` (stereo not drawn) [DOWANOL ™ PPh, 1-phenoxypropan-2-ol], for which the “DPU Solubility comments” value in series [1] is recorded as “Effectively insoluble”.

Take `CCCCCCCCN1CCCC1=O` [N-octylpyrrolidone]: the solubility in series [4] was < 2000 µg/mL.

With `O=C(NCO)NCO` [N,N′-bis(hydroxymethyl) urea], in series [2], the “Fully Soluble in AGNIQUE AMD10? (2% w/w urea derivative)” value is “No” and the “solubility in AGNIQUE AMD10” value is on record as < 2 % w/w.

Take `O=C(NC1CCCCC1)NC1CCCCC1` [N,N′-dicyclohexyl urea]: the “Fully Soluble in AGNIQUE AMD10? (2% w/w urea derivative)” value in series [2] (setting [5]) is reported as “No”.
